In publication PMC4570246 (Cancer letters, 2015) one finds Kd data, which are given here for two compounds.

As a reminder, the Kd is the constant that tells how readily two partners part at equilibrium. A higher Kd goes with weaker binding.

This assay has as its target β-tubulin (Homo sapiens, UniProt P07437). Nature of the assay: SPR. The format is binding.

Chain of β-tubulin (P07437 whole entry): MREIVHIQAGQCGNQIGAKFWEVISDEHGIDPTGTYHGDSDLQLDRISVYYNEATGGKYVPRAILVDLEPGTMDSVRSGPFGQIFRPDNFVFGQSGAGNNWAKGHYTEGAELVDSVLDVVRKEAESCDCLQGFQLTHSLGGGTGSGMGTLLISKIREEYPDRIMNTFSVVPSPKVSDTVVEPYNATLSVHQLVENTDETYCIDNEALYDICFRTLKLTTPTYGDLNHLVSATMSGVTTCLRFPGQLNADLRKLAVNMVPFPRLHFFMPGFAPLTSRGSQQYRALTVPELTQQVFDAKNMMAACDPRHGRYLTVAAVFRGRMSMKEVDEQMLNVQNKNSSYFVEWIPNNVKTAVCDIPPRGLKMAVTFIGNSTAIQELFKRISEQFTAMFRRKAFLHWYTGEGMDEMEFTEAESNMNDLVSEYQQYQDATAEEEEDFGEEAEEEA

Consider `O=c1c(O)c(-c2ccc(O)c(O)c2)oc2cc(O)ccc12` [fisetin], for which the dissociation constant (Kd) was determined as 1590 nM.
Consider `CC(=O)O[C@H]1C(=O)[C@@]2(C)[C@H]([C@H](OC(=O)c3ccccc3)[C@]3(O)C[C@H](OC(=O)[C@H](O)[C@@H](NC(=O)c4ccccc4)c4ccccc4)C(C)=C1C3(C)C)[C@]1(OC(C)=O)CO[C@@H]1C[C@@H]2O` [paclitaxel], for which the Kd is 2260 nM.
